We go through 15 compounds from US5955440A, “Macrolide LHRH antagonists” (Abbott Laboratories, priority 1998, dated 1999).

For test [1], the target named is T1, LHRH rat pituitary receptor (Rattus norvegicus, UniProt P30969).
T1 construct: from tissue; host or cells: rat pituitary
T1 sequence (P30969 1-327): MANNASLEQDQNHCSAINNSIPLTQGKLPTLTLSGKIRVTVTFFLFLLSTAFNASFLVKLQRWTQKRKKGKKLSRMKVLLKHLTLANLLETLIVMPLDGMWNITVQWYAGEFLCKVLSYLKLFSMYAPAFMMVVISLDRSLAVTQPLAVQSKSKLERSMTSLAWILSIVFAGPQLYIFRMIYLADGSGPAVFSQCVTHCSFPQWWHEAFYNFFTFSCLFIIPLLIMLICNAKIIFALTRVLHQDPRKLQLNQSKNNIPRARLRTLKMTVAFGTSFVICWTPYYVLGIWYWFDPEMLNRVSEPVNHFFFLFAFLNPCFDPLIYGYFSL
The experiment in a line: LHRH rat pituitary receptor binding (pKI). Conditions: negative logarithm of the equilibrium dissociation constants; for Ki: Table 1, read-out: receptor binding affinity (pKI) (converted); for receptor binding affinity (pKI): Table 1. Here is the method: (§1) Representative compounds of the present invention were evaluated in in vitro tests for LHRH rat pituitary receptor binding (pKI) and for LH inhibition from rat pituitary cells for antagonist potency (pA2). The tests employed the methods detailed in F. Haviv, et al. J. Med. Chem., 32: 2340-2344 (1989). The receptor binding affinity (pKI) is the negative logarithm of the equilibrium dissociation constants.

Another test concerns the target T2, rat pituitary cells (Rattus norvegicus, UniProt P30969).
T2 construct: endogenous in cells; host or cells: rat pituitary cells
T2 sequence (P30969 1-327): T1 sequence (P30969 1-327)
The experiment in a line: LH inhibition from rat pituitary cells, antagonist potency (pA2). Format: cell-based. Conditions: negative log of antagonist concentration shifting the leuprolide response curve to two-fold higher concentration, Table 2. Here is the method:
as §1
The pA2 value is the negative logarithm of the concentration of antagonist which shifts the response curve produced by the agonist leuprolide to two-fold higher concentration. Leuprolide is the LHRH agonist having the structure pyro-Glu^1 -His^2 -Trp^3 -Ser^4 -Tyr^5 -D-Leu^6 -Leu^7 -Arg^8 -Pro^9 -NHEt and is disclosed and claimed in U.S. Pat. No. 4,005,063. Typically pA2 values of 7.0 or greater are indicative of good LHRH antagonist potency.

A word on the Kb: it is the affinity of an antagonist, worked out from how it opposes an agonist. In the case of `CC[C@H]1OC(=O)[C@H](C)[C@@H](O[C@H]2C[C@@](C)(OC)[C@@H](O)[C@H](C)O2)[C@H](C)[C@@H](O[C@@H]2O[C@H](C)C[C@H](N(C)C3CCCC3)[C@H]2O)[C@](C)(OC)C[C@@H](C)C(=O)[C@H](C)[C@H]2N(CCc3ccc(Cl)c(Cl)c3)C(=O)O[C@]12C` [Example 1, 3'-N-Desmethyl-3'-N-cyclopentyl-11-deoxy-11-[carboxy-(3,4-dichlorophenethylamino)]-6-O-methyl-erythromycin A 11,12-(cyclic carbamate)], in test [1], the Ki is 0.813 nM. For the same compound, the Kb at rat pituitary cells was 0.794 nM.
For orientation: pA2 means the negative logarithm of the molar antagonist concentration that doubles the agonist concentration needed for the same response. With `CCCN(C)[C@H]1C[C@@H](C)O[C@@H](O[C@@H]2[C@@H](C)[C@H](O[C@H]3C[C@@](C)(OC)[C@@H](O)[C@H](C)O3)[C@@H](C)C(=O)O[C@H](CC)[C@@]3(C)OC(=O)N(CCc4ccc(Cl)c(Cl)c4)[C@@H]3[C@@H](C)C(=O)[C@H](C)C[C@@]2(C)OC)[C@@H]1O` [Example 3, 3'-N-Desmethyl-3'-N-n-propyl-11-deoxy-11-[carboxy-(3,4-dichlorophenethylamino)]-6-O-methyl-erythromycin A 11,12-(cyclic carbamate)], the “receptor binding affinity (pKI)” value in test [1] was 9.13. In addition, the pA2 at rat pituitary cells is given as 8.60.
As for `CCCN(C)[C@H]1C[C@@H](C)O[C@@H](O[C@@H]2[C@@H](C)[C@H](O[C@H]3C[C@@](C)(OC)[C@@H](O)[C@H](C)O3)[C@@H](C)C(=O)O[C@H](CC)[C@@]3(C)OC(=O)N(CCc4ccc(Cl)c(F)c4)[C@@H]3[C@@H](C)C(=O)[C@H](C)C[C@@]2(C)OC)[C@@H]1O` [Example 16, 3'-N-Desmethyl-3'-N-n-propyl-11-deoxy-11-[carboxy-(4-chloro-3-fluorophenethylamino)]-6-O-methyl-erythromycin A 11,12-(cyclic carbamate)], the Ki in test [1] was 3.98 nM. For the same compound, the antagonist equilibrium constant (Kb) at rat pituitary cells was 32.4 nM.
On to `CC[C@H]1OC(=O)[C@H](C)[C@@H](O[C@H]2C[C@@](C)(OC)[C@@H](O)[C@H](C)O2)[C@H](C)[C@@H](O[C@@H]2O[C@H](C)C[C@H](N(C)C3CCC3)[C@H]2O)[C@](C)(OC)C[C@@H](C)C(=O)[C@H](C)[C@H]2N(CCc3ccc(Cl)cc3)C(=O)O[C@]12C` [Example 20], for which the “receptor binding affinity (pKI)” value in test [1] is on record as 8.49. Besides, at rat pituitary cells, the pA2 was 7.53.
Turning to `CC[C@H]1OC(=O)[C@H](C)[C@@H](O[C@H]2C[C@@](C)(OC)[C@@H](O)[C@H](C)O2)[C@H](C)[C@@H](O[C@@H]2O[C@H](C)C[C@H](N(C)CC)[C@H]2O)[C@](C)(OC)C[C@@H](C)C(=O)[C@H](C)[C@H]2N(CCc3ccc(Cl)cc3)C(=O)O[C@]12C` [Example 21, 3'-N-Desmethyl-3'-N-ethyl-11-deoxy-11-[carboxy-(4-chlorophenethylamino)]-6-O-methyl-erythromycin A 11,12-(cyclic carbamate)], the Ki in test [1] is 6.17 nM. Further, the Kb at rat pituitary cells was 55 nM.
Turning to `CC[C@H]1OC(=O)[C@H](C)[C@@H](O[C@H]2C[C@@](C)(OC)[C@@H](O)[C@H](C)O2)[C@H](C)[C@@H](O[C@@H]2O[C@H](C)C[C@H](N(C)C(C)C)[C@H]2O)[C@](C)(OC)C[C@@H](C)C(=O)[C@H](C)[C@H]2N(CCc3ccc(Cl)cc3)C(=O)O[C@]12C` [Example 22, 3'-N-Desmethyl-3'-N-isopropyl-11-deoxy-11-[carboxy-(4-chlorophenethylamino)]-6-O-methyl-erythromycin A 11,12-(cyclic carbamate)], the Ki in test [1] was 4.47 nM. Moreover, the antagonist dissociation constant (Kb) at rat pituitary cells was 30.2 nM.
Consider `CC[C@H]1OC(=O)[C@H](C)[C@@H](O[C@H]2C[C@@](C)(OC)[C@@H](O)[C@H](C)O2)[C@H](C)[C@@H](O[C@@H]2O[C@H](C)C[C@H](N(C)C3CCCC3)[C@H]2O)[C@](C)(OC)C[C@@H](C)C(=O)[C@H](C)[C@H]2N(CCc3ccc(Cl)cc3)C(=O)O[C@]12C` [Example 23, 3'-N-Desmethyl-3'-N-cyclopentyl-11-deoxy-11-[carboxy-(4-chlorophenethylamino)]-6-O-methyl-erythromycin A 11,12-(cyclic carbamate)], for which the Ki in test [1] is 6.76 nM. For the same compound, the Kb at rat pituitary cells was 50.1 nM.
In the same order, the values of `CCCN(C)[C@H]1C[C@@H](C)O[C@@H](O[C@@H]2[C@@H](C)[C@H](O[C@H]3C[C@@](C)(OC)[C@@H](O)[C@H](C)O3)[C@@H](C)C(=O)O[C@H](CC)[C@@]3(C)OC(=O)N(CCc4cccc(Cl)c4)[C@@H]3[C@@H](C)C(=O)[C@H](C)C[C@@]2(C)OC)[C@@H]1O` [Example 25, 3'-N-Desmethyl-3'-N-n-propyl-11-deoxy-11-[carboxy-(3-chlorophenethylamino)]-6-O-methyl-erythromycin A 11,12-(cyclic carbamate)] are 4.17 nM and 37.2 nM.
On to `CC[C@H]1OC(=O)[C@H](C)[C@@H](O[C@H]2C[C@@](C)(OC)[C@@H](O)[C@H](C)O2)[C@H](C)[C@@H](O[C@@H]2O[C@H](C)C[C@H](N(C)C3CCCC3)[C@H]2O)[C@](C)(OC)C[C@@H](C)C(=O)[C@H](C)[C@H]2N(CCc3ccc(F)c(Cl)c3)C(=O)O[C@]12C` [Example 26, 3'-N-Desmethyl-3'-N-cyclopentyl-11-deoxy-11-[carboxy-(3-chloro-4-fluorophenethylamino)]-6-O-methyl-erythromycin A 11,12-(cyclic carbamate)], for which, in test [1], the Ki is 1.48 nM. Further, the Kb on rat pituitary cells was 2.19 nM.
`CC[C@H]1OC(=O)[C@H](C)[C@@H](O[C@H]2C[C@@](C)(OC)[C@@H](O)[C@H](C)O2)[C@H](C)[C@@H](O[C@@H]2O[C@H](C)C[C@H](N(C)CCCc3ccc(C)cn3)[C@H]2O)[C@](C)(OC)C[C@@H](C)C(=O)[C@H](C)[C@H]2N(CCc3ccc(F)c(Cl)c3)C(=O)O[C@]12C` [Example 88, 3'-N-Desmethyl-3'-N-[3-(5-methyl-2-pyridyl)propyl]-11-deoxy-11[carboxy-(3-chloro-4-fluorophenethylamino)]-6-O-methyl-erythromycin A 11,12-(cyclic carbamate)]: in test [1], the Ki was 2.09 nM.
The same measure, in the same setting: for `CC[C@H]1OC(=O)[C@H](C)[C@@H](O[C@H]2C[C@@](C)(OC)[C@@H](O)[C@H](C)O2)[C@H](C)[C@@H](O[C@@H]2O[C@H](C)C[C@H](N(C)CCc3ccccn3)[C@H]2O)[C@](C)(OC)C[C@@H](C)C(=O)[C@H](C)[C@H]2N(CCc3ccc(Cl)c(Cl)c3)C(=O)O[C@]12C` [Example 89, 3'-N-Desmethyl-3'-N-(2-pyridyl)ethyl-11-deoxy-11-[carboxy-(3,4-dichlorophenethylamino)]-6-O-methyl-erythromycin A 11,12-(cyclic carbamate)] the value was 4.17 nM.
`CC[C@H]1OC(=O)[C@H](C)[C@@H](O[C@H]2C[C@@](C)(OC)[C@@H](O)[C@H](C)O2)[C@H](C)[C@@H](O[C@@H]2O[C@H](C)C[C@H](N(C)CCc3ccccn3)[C@H]2O)[C@](C)(OC)C[C@@H](C)C(=O)[C@H](C)[C@H]2N(CCc3ccc(F)c(Cl)c3)C(=O)O[C@]12C` [Example 90, 3'-N-Desmethyl-3'-N-(2-pyridyl)ethyl-11-deoxy-11-[carboxy-(3-chloro-4-fluorophenethylamino)]-6-O-methyl-erythromycin A 11,12-(cyclic carbamate)]: the Ki in test [1] is 4.07 nM.
For `CC[C@H]1OC(=O)[C@H](C)[C@@H](O[C@H]2C[C@@](C)(OC)[C@@H](O)[C@H](C)O2)[C@H](C)[C@@H](O[C@@H]2O[C@H](C)C[C@H](N(C)Cc3ccc(O)cc3)[C@H]2O)[C@](C)(OC)C[C@@H](C)C(=O)[C@H](C)[C@H]2N(CCc3ccc(Cl)c(Cl)c3)C(=O)O[C@]12C` [Example 91, 3'-N-Desmethyl-3'-N-(4-hydroxybenzyl)-11-deoxy-11-[carboxy-(3,4-dichlorophenethylamino)]-6-O-methyl-erythromycin A 11,12-(cyclic carbamate)], the Ki in test [1] was 9.55 nM.
For the compound `CC[C@H]1OC(=O)[C@H](C)[C@@H](O[C@H]2C[C@@](C)(OC)[C@@H](O)[C@H](C)O2)[C@H](C)[C@@H](O[C@@H]2O[C@H](C)C[C@H](N(C)Cc3ccncc3)[C@H]2O)[C@](C)(OC)C[C@@H](C)C(=O)[C@H](C)[C@H]2N(CCc3ccc(Cl)c(Cl)c3)C(=O)O[C@]12C` [Example 92, 3'-N-Desmethyl-3'-N-(4-pyridylmethyl)-11-deoxy-11-[carboxy-(3,4-dichlorophenethylamino)]-6-O-methyl-erythromycin A 11,12-(cyclic carbamate)], the Ki in test [1] is 6.31 nM.
On to `CC[C@H]1OC(=O)[C@H](C)[C@@H](O[C@H]2C[C@@](C)(OC)[C@@H](O)[C@H](C)O2)[C@H](C)[C@@H](O[C@@H]2O[C@H](C)C[C@H](N(C)CCC(C)SC)[C@H]2O)[C@](C)(OC)C[C@@H](C)C(=O)[C@H](C)[C@H]2N(CCc3ccc(Cl)c(Cl)c3)C(=O)O[C@]12C` (stereo partly drawn) [Example 93, 3'-N-Desmethyl-3'-N-[(3-methylthio)butyl]-11-deoxy-11-[carboxy-(3,4-dichlorophenethylamino)]-6-O-methyl-erythromycin A 11,12-(cyclic carbamate)], for which the Ki in test [1] is 5.01 nM.
